Results: patent publication US12109207B2, “Methods of using 4(1H)-quinolone derivatives” (Academia Sinica, priority 2019, dated 2024)
Like-named read-outs stand apart in the source and are kept apart here. Each block holds one compound with its values, some of them ahead of it.

What was measured:
H1975 cells = experiment: Cell cytotoxicity assay (MTS), H1975; type: cell-based, human
Description: (§1) Cells were seeded into the wells of 96-well plates (2000 cells/well). After an overnight culture, the cells were treated with different concentrations of a compound for 72 h. The CellTiter 96 AQueous one-solution cell proliferation assay (MTS) reagent was used to determine cytotoxicity. After treatment with a compound, 20 μL of the MTS reagent was added to each well and the plates were incubated at 37° C. for 1-4 h. Next, the absorbance at 490 nm of the culture medium in each well was determined using a VersaMax microplate reader (Molecular Devices).

CCRF-CEM = experiment: Cell cytotoxicity assay (MTS), CCRF-CEM; type: cell-based; conditions: Homo sapiens
Description: as §1

KBtax = experiment: Cell cytotoxicity assay (MTS), KBtax; type: cell-based, human; conditions: for IC50: Homo sapiens, KBtax, P-gp overexpressing, paclitaxel-selected KB subline; for RF, resistance factor (IC50 in resistant cell line/IC50 in parent cell line): KBtax vs KB
Description: as §1

KBvin = experiment: Cell cytotoxicity assay (MTS), KBvin; type: cell-based, human; conditions: for IC50: Homo sapiens, KBvin, P-gp overexpressing, vincristine-selected KB subline; for RF, resistance factor (IC50 in resistant cell line/IC50 in parent cell line): KBvin vs KB
Description: as §1

CEM/VBL = experiment: Cell cytotoxicity assay (MTS), CEM/VBL; type: cell-based, human; conditions: for RF, resistance factor (IC50 in resistant cell line/IC50 in parent cell line): CEM/VBL vs CCRF-CEM; for IC50: Homo sapiens, CEM/VBL, P-gp overexpressing, vinblastine-selected CCRF-CEM subline
Description: as §1

HDQP1 = experiment: Cell cytotoxicity assay, HDQP1; type: cell-based; conditions: Homo sapiens, HDQ-P1; TNBC cell line HDQP1
Description: as §1

HDQP1/TAX = experiment: Cell cytotoxicity assay, HDQP1/TAX; type: cell-based, human
Description: as §1

KBtax xenograft tumors = experiment: KBtax xenograft tumor model; type: in vivo, BALB/c nude mice; conditions: after 21 days, i.p. three times a week; paclitaxel 15 mg/kg, RJ-LC-15-8 8 mg/kg
Description: Using the H1975, MDA-MB-231, and KBtax xenograft models, tumors were established after inoculation into the right flanks of 6-week-old BALB/c nude mice (NARLabs, Taipei, Taiwan). After establishment of the tumors, vehicle and test compounds, which had been dissolved in DMSO, were each injected intraperitoneally into a separate group of animals three times per week. The body mass of each animal and tumor volumes were measured before each drug delivery. Tumor volume was calculated as 0.5W^2L (with W being the width of the smaller diameter and L being the length of the larger diameter). The animal experiment was carried out in accordance with the procedures and guidelines of the Institutional Animal Care and Use Committee, Institute of Biomedical Sciences, Academia Sinica.

Purified porcine tubulin = target: T1, Purified porcine tubulin (Sus scrofa, UniProt P02554); experiment: In vitro tubulin polymerization assay; type: biochemical; conditions: 5 μM, A340 every min for 1 h at 37° C.
T1 construct: purchased Cytoskeleton
T1 sequence (P02554 whole entry): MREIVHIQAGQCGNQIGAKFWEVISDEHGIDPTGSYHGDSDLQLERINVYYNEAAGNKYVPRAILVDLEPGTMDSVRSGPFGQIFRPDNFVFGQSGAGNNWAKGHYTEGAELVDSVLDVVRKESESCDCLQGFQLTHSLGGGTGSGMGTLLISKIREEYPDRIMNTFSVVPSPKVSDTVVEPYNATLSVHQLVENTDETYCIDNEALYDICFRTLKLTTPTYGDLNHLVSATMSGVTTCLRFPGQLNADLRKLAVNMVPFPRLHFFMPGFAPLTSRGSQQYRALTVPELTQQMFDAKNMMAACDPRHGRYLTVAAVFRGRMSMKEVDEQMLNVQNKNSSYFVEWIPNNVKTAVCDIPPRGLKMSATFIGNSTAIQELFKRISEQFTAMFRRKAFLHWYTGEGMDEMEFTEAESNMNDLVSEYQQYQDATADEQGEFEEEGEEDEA
T1 sequence (P02550 whole entry partner): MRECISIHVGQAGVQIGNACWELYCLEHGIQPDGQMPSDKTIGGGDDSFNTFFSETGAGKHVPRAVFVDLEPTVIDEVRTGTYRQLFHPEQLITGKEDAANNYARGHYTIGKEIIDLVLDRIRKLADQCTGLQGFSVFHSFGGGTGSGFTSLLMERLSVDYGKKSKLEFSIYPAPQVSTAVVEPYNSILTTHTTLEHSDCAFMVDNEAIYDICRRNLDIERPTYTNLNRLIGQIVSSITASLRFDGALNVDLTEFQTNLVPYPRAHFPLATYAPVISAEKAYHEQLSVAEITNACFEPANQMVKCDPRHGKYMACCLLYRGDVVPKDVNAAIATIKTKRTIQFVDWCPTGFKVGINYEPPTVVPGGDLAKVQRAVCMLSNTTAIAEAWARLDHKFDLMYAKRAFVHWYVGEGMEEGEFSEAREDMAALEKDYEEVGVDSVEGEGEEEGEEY
Description: Reagents from a Tubulin Polymerization Assay kit (Cytoskeleton) were used according to the manufacturer's instructions. Purified porcine tubulin (4 mg/mL; >99% purity) in G-PEM buffer (80 mM PIPES, 2 mM MgCl2, 0.5 mM EGTA, 1 mM GTP, 15% glycerol, pH 6.9) was mixed with each test compound in the wells of a 96-well plate. Then, the A340 value was recorded each minute for 1 h at 37° C. with the VersaMax microplate reader.

[1] = Body mass and serum biochemical markers, KBtax xenograft mice; type: in vivo, BALB/c nude mice; conditions: end of experiment; paclitaxel 15 mg/kg, RJ-LC-15-8 8 mg/kg; mean ± SEM
Description: The body mass of each animal and tumor volumes were measured before each drug delivery. Tumor volume was calculated as 0.5W^2L (with W being the width of the smaller diameter and L being the length of the larger diameter). The animal experiment was carried out in accordance with the procedures and guidelines of the Institutional Animal Care and Use Committee, Institute of Biomedical Sciences, Academia Sinica.

KB = experiment: Cell cytotoxicity assay (MTS), KB; type: cell-based; conditions: Homo sapiens
Description: as §1

MDA-MB-231 = experiment: Cell cytotoxicity assay (MTS), MDA-MB-231; type: cell-based; conditions: Homo sapiens, MDA-MB-231, 72 h
Description: as §1

[2] = test system: human fibroblast (HFB) cells; experiment: Cell cytotoxicity assay (MTS), human fibroblast; type: cell-based; conditions: normal cell line HFB
Description: as §1

[3] = Homo sapiens, NCI-H1975, Table 8, cell line not given, values match H1975, read-out: IC50
[4] = Homo sapiens, NCI-H1975, 72 h, H1975 cells, 72 h, MTS, read-out: IC50
[5] = Homo sapiens, NCI-H1975, H1975 cells, cell-based SAR study, read-out: IC50

SMILES: CCNC(=O)c1ccc2[nH]c(-c3cccc(F)c3)cc(=O)c2c1 [RJ-LC-15-27, N-ethyl-2-(3-fluorophenyl)-4-oxo-1,4-dihydroquinoline-6-carboxamide]
IC50 (H1975 cells; [3]): 5600 ± 390 nM

SMILES: CCOC(=O)c1ccc2c(=O)cc(-c3ccccc3)[nH]c2c1 [RJ-LC-15-18, Ethyl 4-oxo-2-phenyl-1,4-dihydroquinoline-7-carboxylate]
IC50 (H1975 cells; [3]): 97 ± 3 nM

SMILES: CC(C)OC(=O)c1ccc2[nH]c(-c3ccccc3)cc(=O)c2c1 [RJ-LC-15-15, Isopropyl 4-oxo-2-phenyl-1,4-dihydroquinoline-6-carboxylate]
IC50 (H1975 cells; [4]): 48 nM
IC50 (H1975 cells; [3]): 48 ± 5 nM

SMILES: CCOC(=O)c1ccc2[nH]c(-c3ccc(Br)cc3)cc(=O)c2c1 [RJ-LC-15-6, Ethyl 2-(4-bromophenyl)-4-oxo-1,4-dihydroquinoline-6-carboxylate]
IC50 (H1975 cells; [5]): 4500 nM
IC50 (H1975 cells; [3]): 4500 ± 900 nM

SMILES: CCOC(=O)c1ccc2[nH]c(-c3ccc(F)cc3)cc(=O)c2c1 [RJ-LC-15-5, Ethyl 2-(4-fluorophenyl)-4-oxo-1,4-dihydroquinoline-6-carboxylate]
IC50 (H1975 cells; [5]): 2100 nM
IC50 (H1975 cells; [3]): 2100 ± 210 nM

SMILES: CCNC(=O)c1ccc2[nH]c(-c3ccccc3)cc(=O)c2c1 [RJ-LC-15-2, N-ethyl-4-oxo-2-phenyl-1,4-dihydroquinoline-6-carboxamide]
IC50 (H1975 cells; [5]): 3700 nM
IC50 (H1975 cells; [3]): 3700 ± 730 nM

SMILES: O=C(O)c1ccc2[nH]c(-c3ccccc3)cc(=O)c2c1 [RJ-LC-15-21, Sodium 4-oxo-2-phenyl-1,4-dihydroquinoline-6-carboxylate]
IC50 (H1975 cells; Homo sapiens, NCI-H1975): > 10000 nM

SMILES: O=C(OCCOCCOCCOCCO)c1ccc2[nH]c(-c3ccccc3)cc(=O)c2c1 [RJ-LC-15-3, 2-(2-(2-(2-hydroxyethoxy)ethoxy)ethoxy)ethyl 4-oxo-2-phenyl-1,4-dihydro quinoline-6-carboxylate]
IC50 (H1975 cells; [3]): 3300 ± 990 nM

tubulin polymerization (Purified porcine tubulin): enhanced polymerization
BUN [1]: 19 ± 1.3 mg/dL
Cre [1]: 0.16 ± 0.02 mg/dL
SMILES: CC(=O)O[C@H]1C(=O)[C@@]2(C)[C@H]([C@H](OC(=O)c3ccccc3)[C@]3(O)C[C@H](OC(=O)[C@H](O)[C@@H](NC(=O)c4ccccc4)c4ccccc4)C(C)=C1C3(C)C)[C@]1(OC(C)=O)CO[C@@H]1C[C@@H]2O [Paclitaxel, paclitaxel]
IC50 (CCRF-CEM): 4 ± 0.02 nM
IC50 (KBtax): 101 ± 5.52 nM
RF, resistance factor (IC50 in resistant cell line/IC50 in parent cell line) (KBtax): 10
IC50 (KBvin): 708 ± 46.9 nM
RF, resistance factor (IC50 in resistant cell line/IC50 in parent cell line) (KBvin): 70
RF, resistance factor (IC50 in resistant cell line/IC50 in parent cell line) (CEM/VBL): 214
IC50 (CEM/VBL): 857 ± 9.89 nM
IC50 (HDQP1): 5 ± 3.05 nM
RF, resistance factor (IC50 in resistant cell line/IC50 in parent cell line) (HDQP1/TAX; HDQP1/TAX vs HDQP1): 167
IC50 (HDQP1/TAX; Homo sapiens, HDQ-P1, Paclitaxel-resistant subline): 839 ± 142 nM
average tumor size (KBtax xenograft tumors): 868.7±121.4 mm^3
AST(IU/L) [1]: 102.8 ± 18.9 IU/L

SMILES: CCOC(=O)c1ccc2[nH]c(-c3cccc(Br)c3)cc(=O)c2c1 [RJ-LC-15-25, Ethyl 2-(3-bromophenyl)-4-oxo-1,4-dihydroquinoline-6-carboxylate]
IC50 (H1975 cells; [3]): 70 ± 19 nM

SMILES: CCOC(=O)c1cccc2[nH]c(-c3ccccc3)cc(=O)c12 [RJ-LC-15-17, Ethyl 4-oxo-2-phenyl-1,4-dihydroquinoline-5-carboxylate]
IC50 (H1975 cells; [3]): > 10000 nM

SMILES: CCOC(=O)c1ccc2[nH]c(-c3cccc(C(F)(F)F)c3)cc(=O)c2c1 [RJ-LC-15-9, Ethyl 4-oxo-2-(3-(trifluoromethyl)phenyl)-1,4-dihydroquinoline Carboxylate]
IC50 (H1975 cells; [4]): 780 nM
IC50 (H1975 cells; [3]): 780 ± 12 nM

SMILES: COC(=O)c1ccc2[nH]c(-c3cccc(F)c3)cc(=O)c2c1 [RJ-LC-15-22, Methyl 2-(3-fluorophenyl)-4-oxo-1,4-dihydroquinoline-6-carboxylate]
IC50 (H1975 cells; [3]): 27 ± 6 nM

SMILES: COC(=O)c1ccc2[nH]c(-c3ccccc3)cc(=O)c2c1 [RJ-LC-15-14, Methyl 4-oxo-2-phenyl-1,4-dihydroquinoline-6-carboxylate]
IC50 (H1975 cells; [4]): 207 nM
IC50 (H1975 cells; [3]): 207 ± 39 nM

SMILES: C/C(=C\c1csc(C)n1)[C@@H]1C[C@@H]2O[C@]2(C)CCC[C@H](C)[C@H](O)[C@@H](C)C(=O)C(C)(C)[C@@H](O)CC(=O)N1 [Ixabepilone, ixabepilone]
IC50 (KB): 8 ± 0.37 nM
IC50 (CCRF-CEM): 3 ± 0.06 nM
IC50 (KBtax): 35 ± 0.71 nM
RF, resistance factor (IC50 in resistant cell line/IC50 in parent cell line) (KBtax): 4.3
IC50 (KBvin): 193 ± 24.2 nM
RF, resistance factor (IC50 in resistant cell line/IC50 in parent cell line) (KBvin): 24
RF, resistance factor (IC50 in resistant cell line/IC50 in parent cell line) (CEM/VBL): 50
IC50 (CEM/VBL): 150 ± 6.59 nM

SMILES: CCOCc1ccc2[nH]c(-c3ccccc3)cc(=O)c2c1 [RJ-LC-15-16, 6-(ethoxymethyl)-2-phenylquinolin-4(1H)-one]
IC50 (H1975 cells; [4]): 810 nM
IC50 (H1975 cells; [3]): 810 ± 120 nM

SMILES: CCOC(=O)c1ccc2[nH]c(-c3cccc(F)c3)cc(=O)c2c1 [RJ-LC-15-20, Ethyl 2-(3-fluorophenyl)-4-oxo-1,4-dihydroquinoline-6-carboxylate Methanesulfonate]
IC50 (H1975 cells; Table 8, cell line not given, values match H1975, Methanesulfonate, read-out: IC50): 42 ± 4 nM

SMILES: CCOC(=O)c1ccc2[nH]c(-c3cccc(OC)c3)cc(=O)c2c1 [RJ-LC-15-7, Ethyl 2-(3-methoxyphenyl)-4-oxo-1,4-dihydroquinoline-6-carboxylate]
IC50 (H1975 cells; [4]): 44 nM
IC50 (H1975 cells; [3]): 44 ± 1 nM

SMILES: CCOC(=O)c1ccc2[nH]c(-c3cccc(O)c3)cc(=O)c2c1 [RJ-LC-15-11, Ethyl 2-(3-hydroxyphenyl)-4-oxo-1,4-dihydroquinoline-6-carboxylate]
IC50 (H1975 cells; [5]): 1950 nM
IC50 (H1975 cells; [3]): 1950 ± 200 nM

SMILES: O=C(O)c1ccc2[nH]c(-c3ccccc3)cc(=O)c2c1 [RJ-LC-15-1, 4-oxo-2-phenyl-1,4-dihydroquinoline-6-carboxylic Acid]
IC50 (H1975 cells; [5]): > 5000 nM
IC50 (H1975 cells; [3]): > 5000 nM

SMILES: O=C(Oc1ccccc1)c1ccc2[nH]c(-c3cccc(F)c3)cc(=O)c2c1 [RJ-LC-15-24, Phenyl 2-(3-fluorophenyl)-4-oxo-1,4-dihydroquinoline-6-carboxylate]
IC50 (H1975 cells; [3]): 300 ± 8 nM

SMILES: CCOC(=O)c1ccc2[nH]c(-c3ccc(O)cc3)cc(=O)c2c1 [RJ-LC-15-10, Ethyl 2-(4-hydroxyphenyl)-4-oxo-1,4-dihydroquinoline-6-carboxylate]
IC50 (H1975 cells; [4]): 475 nM
IC50 (H1975 cells; [3]): 475 ± 31 nM

SMILES: CCOC(=O)c1ccc2[nH]c(-c3ccc(OC)cc3)cc(=O)c2c1 [RJ-LC-15-4, Ethyl 2-(4-methoxyphenyl)-4-oxo-1,4-dihydroquinoline-6-carboxylate]
IC50 (H1975 cells; [5]): 2200 nM
IC50 (H1975 cells; [3]): 2200 ± 200 nM

SMILES: O=C(O)c1ccc2[nH]c(-c3cccc(F)c3)cc(=O)c2c1 [RJ-LC-15-26, 2-(3-fluorophenyl)-4-oxo-1,4-dihydroquinoline-6-carboxylic Acid]
IC50 (H1975 cells; [3]): > 10000 nM

SMILES: CC(C)OC(=O)c1ccc2[nH]c(-c3cccc(F)c3)cc(=O)c2c1 [RJ-LC-15-23, Isopropyl 2-(3-fluorophenyl)-4-oxo-1,4-dihydroquinoline-6-carboxylate]
IC50 (H1975 cells; [4]): 6 ± 2.16 nM
IC50 (H1975 cells; [3]): 6 ± 2 nM
IC50 (MDA-MB-231): 10 ± 0.5 nM
IC50 [2]: > 10000 nM

SMILES: CCOC(=O)c1ccc2[nH]c(-c3ccccc3)cc(=O)c2c1 [RJ-LC-15-19, Ethyl 4-oxo-2-phenyl-1,4-dihydroquinoline-6-carboxylate Methane Sulfonate]
IC50 (H1975 cells; Table 8, cell line not given, values match H1975, read-out: IC50): 69 ± 4 nM
